In experiment [1] the test system is Stichococcus bacillaris SAG 379-1a / CCAP 379/1a. The experiment can be described thus: Algal efficacy testing of dry paint film (modified ASTM 5589), Stichococcus. The format is cell-based. The procedure: (§1) These paints were then diluted with an antimicrobial free acrylic/silicone based paint and mixed to prepare targeted concentrations of antimicrobial compounds for the testing. The total biocides concentrations tested were 125, 250, 500, 1000, 2000 and 5000 ppm. After biocides addition or dilution, the paints were mixed 90 seconds with the horse power shaker (AXEL 75M3372/Agitateur SO-10MI) until uniformity was achieved. Paints containing different antimicrobial compounds at the same levels were mixed together in order to obtain the desired ratio of antimicrobial compounds. After one day, the paints were applied to Schleicher & Schuell filter paper at 280 μm wet film thickness and dried for 3 days at room temperature avoiding direct exposure to sunlight. Square discs (1.6 cm×1.6 cm) were cut out from each panel and were used as the substrate for algal efficacy tests. This sample size allowed for an agar border when the sample disc was placed into the well of the test plate.
(§2) Algal efficacy was tested according to modified ASTM 5589 which is a standard accelerated test method for determining resistance of various coatings (including paints) to algal defacement. To accommodate for high-throughput screening, this method was scaled down from petri dishes to 6-well plates. Bold Modified Basal Freshwater Nutrient Solution was used as growth medium. A single coated filter paper coupon was placed with a pair of sterile forceps at the center of the agar plug (on top) with the painted surface facing upwards. Algal inoculums were prepared by mixing equal concentrations (1×10^6 cfu/ml) and equal volumes of exponentially growing algae cultures.
(§3) Each well that contains a tested coupon was inoculated with 1750 μl of algal suspensions (1×10^6 cfu/ml) making sure that the whole surface (paint film as well as the agar surrounding it) was evenly covered. […]
(§4) At the end of the three week incubation period, the samples were scored for percent inhibition regarding visible algal growth compared to the blank sample (0% inhibition).
(§5) The SI is calculated based on F. C. […]

In experiment [2] the test system is Chlorella sp. ATCC 7516. As to the kind of experiment: Algal efficacy testing of dry paint film (modified ASTM 5589), Chlorella. The format is cell-based. As to the method:
as §1, §2, §3, §4, §5

[3] abbreviates: total active in paint, 3 weeks incubation, maximum tested conc given if pass not reached.

In general, inhibition refers to the change of the read-out against control, counted positive when it falls. As to `O=c1[nH]c2c(c(=O)n1C1CCCCC1)CCC2` [Lenacil, 3-cyclohexyl-1,5,6,7-tetrahydrocyclopentapyrimidine-2,4(3H)-dione], the inhibition at 5000 ppm is 70% in experiment [1] (Stichococcus bacillaris, 504 h, total conc 5000 ppm, 3 weeks, visible algal growth vs blank) and 30% in experiment [2] (504 h, total conc 5000 ppm, 3 weeks, visible algal growth vs blank).

The % inhibition is the percentage by which the read-out fell short of the control. Consider `[O-][n+]1ccccc1[S][Zn][S]c1cccc[n+]1[O-]` [ZnPT, bis(2-pyridylthio)zinc 1,1′-dioxide], for which the figures for the “Total conc (minimum inhibitory concentration chosen for SI; pass level ≧75% inhibition)” value in experiment [1] (setting [3]) and in experiment [2] (setting [3]) were 500 ppm and 1000 ppm, respectively. Also, the “% inhibition” value in experiment [1] (total conc 500 ppm, 3 weeks, visible algal growth vs blank) came to 75%; in experiment [2] (total conc 1000 ppm, 3 weeks, visible algal growth vs blank), 100%.
